According to patent publication US8618300B2, “Indolizine inhibitors of leukotriene production” (Boehringer Ingelheim International GmbH, priority 2008, dated 2013):

Target: T1, recombinant human FLAP protein (Homo sapiens, UniProt P20292)
T1 construct: made in house; host or cells: Sf9 insect cells (100,000 x g membrane pellet)
T1 sequence (P20292 1-161): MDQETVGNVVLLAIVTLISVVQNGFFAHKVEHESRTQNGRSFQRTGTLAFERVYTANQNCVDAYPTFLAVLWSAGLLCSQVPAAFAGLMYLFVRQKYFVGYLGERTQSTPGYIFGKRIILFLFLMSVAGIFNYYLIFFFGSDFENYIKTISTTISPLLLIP
Assay: FLAP binding assay, Scintillation Proximity Assay, displacement of [125I]L-691,831
Details: read-out: hFLAP binding IC50
Description: Compounds are assessed for the ability to bind to FLAP in a binding assay that measures compound-specific displacement of an iodinated (^1251) FLAP inhibitor via a Scintillation Proximity Assay format (adapted from S. Charleson et al., Mol. Pharmacol., 1992, 41, 873-879).
Cell pellets produced from sf9 insect cells expressing recombinant human FLAP protein are resuspended in buffer A [15 mM Tris-HCl (pH 7.5), 2 mM MgCl2, 0.3 mM EDTA, 1 mM PMSF]. The cells are lysed with a Dounce homogenizer and the material is centrifuged at 10,000×g for 10 minutes. The supernatant is then collected and centrifuged at 100,000×g for 60 minutes. To prepare membrane protein for an assay, an aliquot of the 100,000×g pellet is resuspended in 1 ml of buffer A, Dounce homogenized, and finally subjected to polytron mixing (30 seconds). Membrane protein (25 μl, 5 μg) is mixed with WGA SPA beads (Amersham) and stirred for 1 h. To an assay plate (Perkin Elmer FlexiPlate) is added 25 μl of test compound prepared in Binding buffer [100 mM Tris (pH 7.5), 140 mM NaCl, 5% glycerol, 2 mM EDTA, 0.5 mM TCEP, 0.05% Tween 20], 25 μl of [^125I]L-691,831 (an iodinated analog of MK-591, Charleson et al. Mol. Pharmacol., 41, 873-879, 1992) and finally 50 μl of the bead/protein mixture. (final concentrations: beads, 200 μg/well; protein, 5 μg/well; [^125I] probe, 0 08 nM/well (17 nCi/well). The plates are shaken for 2 h before reading on a Microbeta plate reader. Non-specific binding is determined by the addition of 10 μM cold L-691,831 compound.

Row | IC50 [µM] | SMILES
1 | 0.038 | Cc1nc(COc2ccc3c(C(=O)c4ccc(Cl)cc4)c(CC(C)(C)C(=O)O)c(C(=O)C(C)(C)C)n3c2)cs1 [3-{1-[(4-chlorophenyl)carbonyl]-3-(2,2-dimethylpropanoyl)-6-[(2-methyl-1,3-thiazol-4-yl)methoxy]indolizin-2-yl}-2,2-dimethylpropanoic acid]
2 | 0.008 | Cc1cccc(COc2ccc3c(C(=O)c4ccc(Cl)cc4)c(CC(C)(C)C(=O)O)c(C(=O)C(C)(C)C)n3c2)n1 [3-{1-[(4-chlorophenyl)carbonyl]-3-(2,2-dimethylpropanoyl)-6-[(6-methylpyridin-2-yl)methoxy]indolizin-2-yl}-2,2-dimethylpropanoic acid]
3 | 0.111 | Cc1nc(COc2ccn3c(C(=O)c4ccc(Cl)c(Cl)c4)c(CC(C)(C)C(=O)O)c(C(=O)C(C)(C)C)c3c2)cs1 [3-{3-[(3,4-dichlorophenyl)carbonyl]-1-(2,2-dimethylpropanoyl)-7-[(2-methyl-1,3-thiazol-4-yl)methoxy]indolizin-2-yl}-2,2-dimethylpropanoic acid]
4 | 0.001 | Cc1csc(COc2ccn3c(C(=O)c4ccc(Cl)c(Cl)c4)c(CC(C)(C)C(=O)O)c(C(=O)C(C)(C)C)c3c2)n1 [3-{3-[(3,4-dichlorophenyl)carbonyl]-1-(2,2-dimethylpropanoyl)-7-[(4-methyl-1,3-thiazol-2-yl)methoxy]indolizin-2-yl}-2,2-dimethylpropanoic acid]
5 | 0.001 | Cc1cccc(COc2ccn3c(C(=O)c4ccc(Cl)c(Cl)c4)c(CC(C)(C)C(=O)O)c(C(=O)C(C)(C)C)c3c2)n1 [3-{3-[(3,4-dichlorophenyl)carbonyl]-1-(2,2-dimethylpropanoyl)-7-[(6-methylpyridin-2-yl)methoxy]indolizin-2-yl}-2,2-dimethylpropanoic acid]
6 | 0.001 | Cc1nc(COc2ccn3c(C(=O)c4cc(Cl)cc(Cl)c4)c(CC(C)(C)C(=O)O)c(C(=O)C(C)(C)C)c3c2)cs1 [3-{3-[(3,5-dichlorophenyl)carbonyl]-1-(2,2-dimethylpropanoyl)-7-[(2-methyl-1,3-thiazol-4-yl)methoxy]indolizin-2-yl}-2,2-dimethylpropanoic acid]
7 | 0.001 | Cc1csc(COc2ccn3c(C(=O)c4cccc(Cl)c4)c(CC(C)(C)C(=O)O)c(C(=O)C(C)(C)C)c3c2)n1 [3-{3-[(3-chlorophenyl)carbonyl]-1-(2,2-dimethylpropanoyl)-7-[(4-methyl-1,3-thiazol-2-yl)methoxy]indolizin-2-yl}-2,2-dimethylpropanoic acid]
8 | 0.156 | CC(C)c1ccn2c(C(=O)N(C)c3ccc(Br)cc3)c(CC(C)(C)C(=O)O)c(C(=O)C(C)(C)C)c2c1 [3-{3-[(4-bromophenyl)(methyl)carbamoyl]-1-(2,2-dimethylpropanoyl)-7-(propan-2-yl)indolizin-2-yl}-2,2-dimethylpropanoic acid]
9 | 0.099 | CC(C)(C)C(=O)c1c(CC(C)(C)C(=O)O)c(C(=O)c2ccc(Br)cc2)n2ccc(OCc3ccccn3)cc12 [3-{3-[(4-bromophenyl)carbonyl]-1-(2,2-dimethylpropanoyl)-7-(pyridin-2-ylmethoxy)indolizin-2-yl}-2,2-dimethylpropanoic acid]
10 | 0.002 | Cc1nc(COc2ccn3c(C(=O)c4ccc(Cl)c(C)c4)c(CC(C)(C)C(=O)O)c(C(=O)C(C)(C)C)c3c2)cs1 [3-{3-[(4-chloro-3-methylphenyl)carbonyl]-1-(2,2-dimethylpropanoyl)-7-[(2-methyl-1,3-thiazol-4-yl)methoxy]indolizin-2-yl}-2,2-dimethylpropanoic acid]
11 | 0.001 | Cc1csc(COc2ccn3c(C(=O)c4ccc(Cl)c(C)c4)c(CC(C)(C)C(=O)O)c(C(=O)C(C)(C)C)c3c2)n1 [3-{3-[(4-chloro-3-methylphenyl)carbonyl]-1-(2,2-dimethylpropanoyl)-7-[(4-methyl-1,3-thiazol-2-yl)methoxy]indolizin-2-yl}-2,2-dimethylpropanoic acid]
12 | 0.025 | CC(C)(C)C(=O)c1c(CC(C)(C)C(=O)O)c(C(=O)c2ccc(Cl)cc2)n2ccc(OCc3nccs3)cc12 [3-{3-[(4-chlorophenyl)carbonyl]-1-(2,2-dimethylpropanoyl)-7-(1,3-thiazol-2-ylmethoxy)indolizin-2-yl}-2,2-dimethylpropanoic acid]
13 | 0.118 | CC(C)(C)C(=O)c1c(CC(C)(C)C(=O)O)c(C(=O)c2ccc(Cl)cc2)n2ccc(OCc3cscn3)cc12 [3-{3-[(4-chlorophenyl)carbonyl]-1-(2,2-dimethylpropanoyl)-7-(1,3-thiazol-4-ylmethoxy)indolizin-2-yl}-2,2-dimethylpropanoic acid]
14 | 0.044 | CC(C)(C)C(=O)c1c(CC(C)(C)C(=O)O)c(C(=O)c2ccc(Cl)cc2)n2ccc(OCc3ccccn3)cc12 [3-{3-[(4-chlorophenyl)carbonyl]-1-(2,2-dimethylpropanoyl)-7-(pyridin-2-ylmethoxy)indolizin-2-yl}-2,2-dimethylpropanoic acid]
15 | 0.064 | CC(C)(C)C(=O)c1c(CC(C)(C)C(=O)O)c(C(=O)c2ccc(Cl)cc2)n2ccc(OCc3ncccn3)cc12 [3-{3-[(4-chlorophenyl)carbonyl]-1-(2,2-dimethylpropanoyl)-7-(pyrimidin-2-ylmethoxy)indolizin-2-yl}-2,2-dimethylpropanoic acid]
16 | 0.008 | CC(C)(C)C(=O)c1c(CC(C)(C)C(=O)O)c(C(=O)c2ccc(Cl)cc2)n2ccc(OCc3ccc4ccccc4n3)cc12 [3-{3-[(4-chlorophenyl)carbonyl]-1-(2,2-dimethylpropanoyl)-7-(quinolin-2-ylmethoxy)indolizin-2-yl}-2,2-dimethylpropanoic acid]
17 | 0.069 | COc1nc(COc2ccn3c(C(=O)c4ccc(Cl)cc4)c(CC(C)(C)C(=O)O)c(C(=O)C(C)(C)C)c3c2)cs1 [3-{3-[(4-chlorophenyl)carbonyl]-1-(2,2-dimethylpropanoyl)-7-[(2-methoxy-1,3-thiazol-4-yl)methoxy]indolizin-2-yl}-2,2-dimethylpropanoic acid]
18 | 0.018 | Cc1nc(COc2ccn3c(C(=O)c4ccc(Cl)cc4)c(CC(C)(C)C(=O)O)c(C(=O)C(C)(C)C)c3c2)cs1 [3-{3-[(4-chlorophenyl)carbonyl]-1-(2,2-dimethylpropanoyl)-7-[(2-methyl-1,3-thiazol-4-yl)methoxy]indolizin-2-yl}-2,2-dimethylpropanoic acid]
19 | 0.058 | COc1c(C)cnc(COc2ccn3c(C(=O)c4ccc(Cl)cc4)c(CC(C)(C)C(=O)O)c(C(=O)C(C)(C)C)c3c2)c1C [3-{3-[(4-chlorophenyl)carbonyl]-1-(2,2-dimethylpropanoyl)-7-[(4-methoxy-3,5-dimethylpyridin-2-yl)methoxy]indolizin-2-yl}-2,2-dimethylpropanoic acid]
20 | 0.008 | COc1ccnc(COc2ccn3c(C(=O)c4ccc(Cl)cc4)c(CC(C)(C)C(=O)O)c(C(=O)C(C)(C)C)c3c2)c1 [3-{3-[(4-chlorophenyl)carbonyl]-1-(2,2-dimethylpropanoyl)-7-[(4-methoxypyridin-2-yl)methoxy]indolizin-2-yl}-2,2-dimethylpropanoic acid]
21 | 0.008 | COc1cccc(COc2ccn3c(C(=O)c4ccc(Cl)cc4)c(CC(C)(C)C(=O)O)c(C(=O)C(C)(C)C)c3c2)n1 [3-{3-[(4-chlorophenyl)carbonyl]-1-(2,2-dimethylpropanoyl)-7-[(6-methoxypyridin-2-yl)methoxy]indolizin-2-yl}-2,2-dimethylpropanoic acid]
22 | 0.017 | Cc1cccc(COc2ccn3c(C(=O)c4ccc(Cl)cc4)c(CC(C)(C)C(=O)O)c(C(=O)C(C)(C)C)c3c2)n1 [3-{3-[(4-chlorophenyl)carbonyl]-1-(2,2-dimethylpropanoyl)-7-[(6-methylpyridin-2-yl)methoxy]indolizin-2-yl}-2,2-dimethylpropanoic acid]
23 | 0.085 | CC(C)(C)CC(=O)c1c(CC(C)(C)C(=O)O)c(C(=O)c2ccc(Cl)cc2)n2ccc(OCc3ccc4ccccc4n3)cc12 [3-{3-[(4-chlorophenyl)carbonyl]-1-(3,3-dimethylbutanoyl)-7-(quinolin-2-ylmethoxy)indolizin-2-yl}-2,2-dimethylpropanoic acid]
24 | 0.002 | COc1ccc(C(=O)c2c(CC(C)(C)C(N)=O)c(C(=O)C(C)(C)C)c3cc(OCc4cccc(N)n4)ccn23)cc1 [3-{7-[(6-aminopyridin-2-yl)methoxy]-1-(2,2-dimethylpropanoyl)-3-(4-methoxybenzoyl)indolizin-2-yl}-2,2-dimethylpropanamide]
25 | 0.007 | COc1ccc(C(=O)c2c(C[C@@H](C(=O)O)C(C)C)c(C(=O)C(C)(C)C)c3cc(OCc4csc(C)n4)ccn23)cc1 [(2R)-2-({1-(2,2-dimethylpropanoyl)-3-[(4-methoxyphenyl)carbonyl]-7-[(2-methyl-1,3-thiazol-4-yl)methoxy]indolizin-2-yl}methyl)-3-methylbutanoic acid]
